Laboratory results: PubChem BioAssay AID248 (DTP/NCI, 2004)
Where “and” joins values, the source holds several entries; their conditions need not be identical. Identical values can stand only once. Inconclusive results and toxic doses are left out. No stated cut-off is given here; in the data, active means T/C of 150% or more; inactive means T/C below 125%.

Test system: L1210 leukemia ip in BDF1 mice, survival T/C
Test: NCI In Vivo Anticancer Drug Screen. Data for tumor model L1210 Leukemia (intraperitoneal) in B6D2F1 (BDF1) mice
Details: endpoint: mean survival time, higher = longer survival
Summary of the method: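 Read-out is survival time, reported as the treated-group measurement over the vehicle-control measurement.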

[1] = dose: 50.0 mg/kg/injection, schedule: Q01DX009 (ip), vehicle: Klucel (hydroxypropylcellulose) (HPC)
[2] = dose: 100.0 mg/kg/injection, schedule: Q01DX009 (ip), vehicle: Klucel (hydroxypropylcellulose) (HPC)
[3] = dose: 100.0 mg/kg/injection, schedule: Q04DX003 (ip), vehicle: Klucel (hydroxypropylcellulose) (HPC)
[4] = dose: 200.0 mg/kg/injection, schedule: Q01DX009 (ip), vehicle: Klucel (hydroxypropylcellulose) (HPC)
[5] = dose: 200.0 mg/kg/injection, schedule: Q04DX003 (ip), vehicle: Klucel (hydroxypropylcellulose) (HPC)
[6] = dose: 50.0 mg/kg/injection, schedule: Q01DX009 (ip), vehicle: saline
[7] = dose: 100.0 mg/kg/injection, schedule: Q01DX009 (ip), vehicle: saline
[8] = dose: 200.0 mg/kg/injection, schedule: Q01DX009 (ip), vehicle: saline
[9] = dose: 100.0 mg/kg/injection, schedule: Q04DX002 (ip), vehicle: saline with Tween-80
[10] = dose: 100.0 mg/kg/injection, schedule: Q01DX001 (ip), vehicle: saline with Tween-80
[11] = dose: 200.0 mg/kg/injection, schedule: Q01DX001 (ip), vehicle: saline with Tween-80
[12] = dose: 400.0 mg/kg/injection, schedule: Q01DX001 (ip), vehicle: saline with Tween-80
[13] = dose: 50.0 mg/kg/injection, schedule: Q01DX009 (ip), vehicle: saline with Tween-80
[14] = dose: 100.0 mg/kg/injection, schedule: Q01DX001 (ip), vehicle: carboxymethylcellulose (CMC)
[15] = dose: 200.0 mg/kg/injection, schedule: Q01DX001 (ip), vehicle: carboxymethylcellulose (CMC)
[16] = dose: 400.0 mg/kg/injection, schedule: Q01DX001 (ip), vehicle: carboxymethylcellulose (CMC)
[17] = dose: 400.0 mg/kg/injection, schedule: Q01DX009 (ip), vehicle: Klucel (hydroxypropylcellulose) (HPC)

Measured: T/C

O=C(COc1cc(Cl)c(Cl)cc1Cl)NO
inactive: [1] 98 % of control | [2] 104 % of control | [3] 101 % of control | [4] 112 % of control | [5] 101 % of control

C1CCC2=NCCCN2CC1
inactive: dose: 5.0 mg/kg/injection, schedule: Q01DX001 (ip), vehicle: saline 101 % of control | dose: 10.0 mg/kg/injection, schedule: Q01DX001 (ip), vehicle: saline 101 % of control | dose: 20.0 mg/kg/injection, schedule: Q01DX001 (ip), vehicle: saline 103 % of control | dose: 40.0 mg/kg/injection, schedule: Q01DX001 (ip), vehicle: saline 97 % of control

O=C(Nc1ccccc1F)Oc1cccc(C(F)(F)F)c1
inactive: dose: 25.0 mg/kg/injection, schedule: Q01DX009 (ip), vehicle: saline 103 % of control | [6] 110 % of control | [7] 103 % of control

CC1=CP(=O)(O)CC1
inactive: [6] 113 % of control | [7] 103 % of control | dose: 100.0 mg/kg/injection, schedule: Q04DX003 (ip), vehicle: saline 95 % of control | [8] 98 % of control | dose: 200.0 mg/kg/injection, schedule: Q04DX003 (ip), vehicle: saline 93 % of control

CN1C2CCC1CC(OC(=O)c1ccccc1)C2 (stereo unspecified)
inactive: dose: 25.0 mg/kg/injection, schedule: Q04DX002 (ip), vehicle: saline with Tween-80 94 % of control | dose: 50.0 mg/kg/injection, schedule: Q04DX002 (ip), vehicle: saline with Tween-80 105 % of control | [9] 94 % of control

COc1ccc(CC(=O)OOC(C)(C)C)cc1
inactive: dose: 100.0 mg/kg/injection, schedule: Q04DX003 (ip), vehicle: saline with Tween-80 100 % of control | dose: 200.0 mg/kg/injection, schedule: Q04DX003 (ip), vehicle: saline with Tween-80 92 % of control

COC1(C#N)C(=O)c2ccccc2C1=O
inactive: [10] 97 % of control | [11] 108 % of control | [12] 94 % of control

C/C=C\c1ccc(OCCOC(=O)Nc2cccc(C(F)(F)F)c2)c(OC)c1
inactive: [13] 102 % of control | dose: 100.0 mg/kg/injection, schedule: Q01DX009 (ip), vehicle: saline with Tween-80 98 % of control and 91 % of control | dose: 200.0 mg/kg/injection, schedule: Q01DX009 (ip), vehicle: saline with Tween-80 95 % of control and 90 % of control | dose: 400.0 mg/kg/injection, schedule: Q01DX009 (ip), vehicle: saline with Tween-80 98 % of control

O=C1C2C3C=CC(C3)C2C(=O)C2C3C=CC(C3)C12 (stereo unspecified)
inactive: dose: 50.0 mg/kg/injection, schedule: Q01DX001 (ip), vehicle: carboxymethylcellulose (CMC) 103 % of control | [14] 93 % of control | [15] 100 % of control | [16] 112 % of control

C1=C(COC(c2ccccc2)(c2ccccc2)c2ccccc2)CCCC1
inactive: [14] 87 % of control | [16] 87 % of control

NNS(=O)(=O)c1ccc(OCC(=O)O)cc1
inactive: [2] 98 % of control | [3] 102 % of control | [4] 94 % of control | [5] 98 % of control | [17] 94 % of control | dose: 400.0 mg/kg/injection, schedule: Q04DX003 (ip), vehicle: Klucel (hydroxypropylcellulose) (HPC) 98 % of control

COC(=N)C/C=C/CC(=N)OC
inactive: [7] 94 % of control | [8] 94 % of control | dose: 400.0 mg/kg/injection, schedule: Q01DX009 (ip), vehicle: saline 92 % of control

CNC(=O)Oc1cccc(NC(=O)OCC#CCCl)c1
inactive: [10] 92 % of control | [11] 90 % of control | [12] 90 % of control

CNc1c(Cl)n(C)c(=O)n(C)c1=O
inactive: dose: 50.0 mg/kg/injection, schedule: Q01DX001 (ip), vehicle: saline 101 % of control | dose: 100.0 mg/kg/injection, schedule: Q01DX001 (ip), vehicle: saline 101 % of control | dose: 200.0 mg/kg/injection, schedule: Q01DX001 (ip), vehicle: saline 104 % of control | dose: 400.0 mg/kg/injection, schedule: Q01DX001 (ip), vehicle: saline 101 % of control

Clc1ccccc1C=Nc1cccc2ccccc12
inactive: [2] 121 % of control | [4] 104 % of control | [17] 107 % of control

COc1ccc(C(=O)N/N=C/c2ccco2)cc1
inactive: [2] 100 % of control | [4] 86 % of control

Cc1csc2nc(-c3ccccc3)[nH]c(=O)c12
inactive: dose: 75.0 mg/kg/injection, schedule: Q01DX001 (ip), vehicle: saline sonified 86 % of control | dose: 150.0 mg/kg/injection, schedule: Q01DX001 (ip), vehicle: saline sonified 101 % of control | dose: 300.0 mg/kg/injection, schedule: Q01DX001 (ip), vehicle: saline sonified 107 % of control

CCOC(=O)c1cc(OCC)c2c(ccc3ccccc32)n1
inactive: [14] 97 % of control | dose: 100.0 mg/kg/injection, schedule: Q01DX009 (ip), vehicle: carboxymethylcellulose (CMC) 95 % of control and 103 % of control | dose: 100.0 mg/kg/injection, schedule: Q04DX002 (ip), vehicle: carboxymethylcellulose (CMC) 102 % of control and 105 % of control | dose: 100.0 mg/kg/injection, schedule: Q04DX003 (ip), vehicle: carboxymethylcellulose (CMC) 103 % of control | [15] 112 % of control | dose: 200.0 mg/kg/injection, schedule: Q01DX009 (ip), vehicle: carboxymethylcellulose (CMC) 98 % of control and 106 % of control | dose: 200.0 mg/kg/injection, schedule: Q04DX002 (ip), vehicle: carboxymethylcellulose (CMC) 97 % of control and 102 % of control | dose: 200.0 mg/kg/injection, schedule: Q04DX003 (ip), vehicle: carboxymethylcellulose (CMC) 97 % of control | [16] 100 % of control | dose: 400.0 mg/kg/injection, schedule: Q01DX009 (ip), vehicle: carboxymethylcellulose (CMC) 98 % of control and 101 % of control | dose: 400.0 mg/kg/injection, schedule: Q04DX002 (ip), vehicle: carboxymethylcellulose (CMC) 96 % of control and 97 % of control | dose: 400.0 mg/kg/injection, schedule: Q04DX003 (ip), vehicle: carboxymethylcellulose (CMC) 102 % of control

NC(=O)C1(N2CCCC2)CCN(Cc2ccccc2)CC1
inactive: [1] 94 % of control | [2] 97 % of control | [3] 96 % of control | [4] 90 % of control | [5] 93 % of control

O=C1c2ccccc2-c2ccc(Cl)cc21
inactive: [14] 96 % of control | [15] 96 % of control | [16] 96 % of control

C/C(N=Nc1ccc([N+](=O)[O-])cc1)=N\Nc1ccccc1
inactive: [1] 102 % of control | [2] 107 % of control | [4] 112 % of control | [17] 97 % of control

CSc1ccc(NC(=O)Nc2cc(C(C)C)ccc2C)cc1
inactive: [2] 103 % of control | [4] 104 % of control | [17] 98 % of control

CCc1cc(CC)c(/C(Cl)=C/C(=O)NCC(=O)O)c(CC)c1Br
inactive: dose: 75.0 mg/kg/injection, schedule: Q04DX003 (ip), vehicle: Klucel (hydroxypropylcellulose) (HPC) 95 % of control | dose: 150.0 mg/kg/injection, schedule: Q04DX003 (ip), vehicle: Klucel (hydroxypropylcellulose) (HPC) 93 % of control | dose: 300.0 mg/kg/injection, schedule: Q04DX003 (ip), vehicle: Klucel (hydroxypropylcellulose) (HPC) 87 % of control

CCOc1nc(N)nc(N)c1-c1ccccc1
inactive: [9] 111 % of control | dose: 200.0 mg/kg/injection, schedule: Q04DX002 (ip), vehicle: saline with Tween-80 96 % of control | dose: 400.0 mg/kg/injection, schedule: Q04DX002 (ip), vehicle: saline with Tween-80 100 % of control

CCCCC(CC)C1NC(=O)N(SC(Cl)(Cl)Cl)C1=O (stereo unspecified)
inactive: dose: 12.5 mg/kg/injection, schedule: Q01DX009 (ip), vehicle: saline with Tween-80 103 % of control | dose: 25.0 mg/kg/injection, schedule: Q01DX009 (ip), vehicle: saline with Tween-80 92 % of control | [13] 101 % of control and 106 % of control

CCC/C=[CH]/[Hg][Cl]
inactive: dose: 6.25 mg/kg/injection, schedule: Q01DX009 (ip), vehicle: other 93 % of control | dose: 6.25 mg/kg/injection, schedule: Q04DX003 (ip), vehicle: saline sonified 95 % of control | dose: 12.5 mg/kg/injection, schedule: Q01DX009 (ip), vehicle: other 94 % of control | dose: 12.5 mg/kg/injection, schedule: Q04DX003 (ip), vehicle: saline sonified 95 % of control | dose: 25.0 mg/kg/injection, schedule: Q01DX009 (ip), vehicle: other 97 % of control | dose: 25.0 mg/kg/injection, schedule: Q04DX003 (ip), vehicle: saline sonified 106 % of control
